Test results: patent US9868738B2, “Diazine-fused amidines as BACE inhibitors, compositions, and their use” (Merck Sharp & Dohme Corp., priority 2014, dated 2018)
pKi: −log10 of the molar value.

Key:
[1] = target: soluble human BACE1 catalytic domain (Homo sapiens (Human), UniProt P56817); experiment: BACE-1 Ki Assay (BACE-1 HTRF FRET Assay); type: biochemical; conditions: Ki calculated from IC50 using the Cheng-Prusoff equation; QSY7-APPswe-Eu substrate 200 nM, pH 5.0
Procedure: In another embodiment, the compounds of the invention comprise the example compounds shown in the table below, or a tautomer thereof, or a pharmaceutically acceptable salt of said compound or said tautomer. Examples 2 to 42 were prepared using the method similar to Ex. 1. Example 44 to 51 were synthesized using the method similar to Ex. 43. BACE-1 values reported in this table were measured using BACE-1 Ki Assay (BACE-1 HTRF FRET Assay).
• Reagents: Na^+-Acetate pH 5.0; 1% Brij-35; Glycerol; Dimethyl Sulfoxide (DMSO); Recombinant human soluble BACE1 catalytic domain (>95% pure); APP Swedish mutant peptide substrate (QSY7-APP^swe-Eu): QSY7-EISEVNLDAEFC-Europium-amide.
A homogeneous time-resolved FRET assay can be used to determine IC50 values for inhibitors of the soluble human BACE1 catalytic domain. This assay monitors the increase of 620 nm fluorescence that resulted from BACE1 cleavage of an APPswedish APP^swe mutant peptide FRET substrate (QSY7-EISEVNLDAEFC-Europium-amide). This substrate contains an N-terminal QSY7 moiety that serves as a quencher of the C-terminal Europium fluorophore (620 nm Em). In the absence of enzyme activity, 620 nm fluorescence is low in the assay and increased linearly over 3 hours in the presence of uninhibited BACE1 enzyme. Inhibition of BACE1 cleavage of the QSY7-APP^swe-Eu substrate by inhibitors is manifested as a suppression of 620 nm fluorescence.
Varying concentrations of inhibitors at 3× the final desired concentration in a volume of 10 ul are preincubated with purified human BACE1 catalytic domain (3 nM in 10 μl) for 30 minutes at 30° C. in reaction buffer containing 20 mM Na-Acetate pH 5.0, 10% glycerol, 0.1% Brij-35 and 7.5% DSMO. Reactions are initiated by addition of 10 μl of 600 nM QSY7-APP^swe-Eu substrate (200 nM final) to give a final reaction volume of 30 μl in a 384 well Nunc HTRF plate. The reactions are incubated at 30° C. for 1.5 hours. The 620 nm fluorescence is then read on a Rubystar HTRF plate reader (BMG Labtechnologies) using a 50 millisecond delay followed by a 400 millisecond acquisition time window. Inhibitor IC50 values are derived from non-linear regression analysis of concentration response curves. Ki values are then calculated from IC50 values using the Cheng-Prusoff equation using a previously determined […] of 8 μM for the QSY7-APP^swe-Eu substrate at BACE1.

[2] = target: purified human autoBACE-2 (Homo sapiens (Human), UniProt Q9Y5Z0); experiment: BACE-2 Assay (BACE-HTRF assay); type: biochemical; conditions: Ki calculated from IC50 using the Cheng-Prusoff equation; QSY7-EISEVNLDAEFC-Eu-amide substrate 200 nM, pH 5.0
Chain of purified human autoBACE-2 (Q9Y5Z0 63-473 limits assumed): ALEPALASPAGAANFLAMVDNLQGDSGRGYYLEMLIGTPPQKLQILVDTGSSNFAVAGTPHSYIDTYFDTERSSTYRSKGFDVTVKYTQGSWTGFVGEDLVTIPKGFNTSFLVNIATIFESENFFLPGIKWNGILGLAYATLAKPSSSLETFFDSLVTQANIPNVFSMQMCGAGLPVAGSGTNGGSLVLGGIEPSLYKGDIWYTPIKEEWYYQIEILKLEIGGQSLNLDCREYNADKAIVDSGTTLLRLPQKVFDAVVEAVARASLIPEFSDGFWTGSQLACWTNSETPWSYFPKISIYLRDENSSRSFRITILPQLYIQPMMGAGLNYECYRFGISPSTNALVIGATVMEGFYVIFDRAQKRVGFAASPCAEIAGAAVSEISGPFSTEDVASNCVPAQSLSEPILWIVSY
Procedure: Inhibitor IC50s at purified human autoBACE-2 are determined in a time-resolved endpoint proteolysis assay that measures hydrolysis of the QSY7-EISEVNLDAEFC-Eu-amide FRET peptide substrate (BACE-HTRF assay). BACE-mediated hydrolysis of this peptide results in an increase in relative fluorescence (RFU) at 620 nm after excitation with 320 nm light. Inhibitor compounds, prepared at 3× the desired final concentration in 1×BACE assay buffer (20 mM sodium acetate pH 5.0, 10% glycerol, 0.1% Brij-35) supplemented with 7.5% DMSO are pre-incubated with an equal volume of autoBACE-2 enzyme diluted in 1×BACE assay buffer (final enzyme concentration 1 nM) in black 384-well NUNC plates for 30 minutes at 30° C. […] DMSO is present at […] final concentration in the assay. Following laser excitation of sample wells at 320 nm, the fluorescence signal at 620 nm is collected for 400 ms following a 50 μs delay on a RUBYstar HTRF plate reader (BMG Labtechnologies). Raw RFU data is normalized to maximum (1.0 nM BACE/DMSO) and minimum (no enzyme/DMSO) RFU values. IC50s are determined by nonlinear regression analysis (sigmoidal dose response, variable slope) of percent inhibition data with minimum and maximum values set to 0 and 100 percent respectively. Similar IC50s are obtained when using raw RFU data. The Ki values are calculated from the IC50 using the Cheng-Prusoff equation.

Chain of soluble human BACE1 catalytic domain (P56817 75-416): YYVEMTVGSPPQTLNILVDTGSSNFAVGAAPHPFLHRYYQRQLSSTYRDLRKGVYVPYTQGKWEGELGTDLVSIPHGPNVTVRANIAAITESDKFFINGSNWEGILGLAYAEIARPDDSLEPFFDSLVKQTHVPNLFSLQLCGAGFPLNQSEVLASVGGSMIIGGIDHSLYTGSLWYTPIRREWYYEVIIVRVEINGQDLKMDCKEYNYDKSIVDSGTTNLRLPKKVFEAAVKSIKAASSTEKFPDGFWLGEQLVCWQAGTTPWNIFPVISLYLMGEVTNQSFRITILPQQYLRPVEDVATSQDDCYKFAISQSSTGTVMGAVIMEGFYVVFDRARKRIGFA

Row | SMILES | pKi [1] | pKi [2]
1 | Cc1ncc2c(n1)C[C@@](C)(c1cc(NC(=O)c3ccc(Cl)cn3)ccc1F)NC2=N [Example 45, 5-chloro-N-{4-fluoro-3-[(7S)-5-imino-2,7-dimethyl-5,6,7,8-tetrahydropyrido[4,3-d]pyrimidin-7-yl]phenyl}pyridine-2-carboxamide] | 7.98 | 8.38
2 | C[C@@]1(c2cc(-c3cncc(C#N)c3)cs2)Cc2nc(C(F)(F)F)ncc2C(=N)N1 [Example 41, 5-{5-[(7S)-5-imino-7-methyl-2-(trifluoromethyl)-5,6,7,8-tetrahydropyrido[4,3-d]pyrimidin-7-yl]thiophen-3-yl}pyridine-3-carbonitrile] | 6.68 | 7.01
3 | Cc1ncc2c(n1)C[C@@](C)(c1cc(NC(=O)c3ccc(F)cn3)ccc1F)NC2=N [Example 44, 5-fluoro-N-{4-fluoro-3-[(7S)-5-imino-2,7-dimethyl-5,6,7,8-tetrahydropyrido[4,3-d]pyrimidin-7-yl]phenyl}pyridine-2-carboxamide] | 7.77 | 8.35
4 | COc1cccc2cc(-c3cc(Cl)c([C@]4(C)Cc5nc(C6CC6)ncc5C(=N)N4)s3)[nH]c12 [Example 38, (7S)-7-[3-chloro-5-(7-methoxy-1H-indo1-2-yl)thiophen-2-yl]-2-cyclopropyl-7-methyl-7,8-dihydropyrido[4,3-d]pyrimidin-5(6H)-imine] | 7.65 | 8.70
5 | C[C@@]1(c2cc(-c3cncc(C#N)c3)ccc2F)Cc2ncncc2C(=N)N1 [Example 9, 5-{4-fluoro-3-[(7S)-5-imino-7-methyl-5,6,7,8-tetrahydropyrido[4,3-d]pyrimidin-7-yl]phenyl}pyridine-3-carbonitrile] | 6.22 | 6.32
6 | Cc1ncc2c(n1)C[C@@](C)(c1sc(-c3cc(F)cc(-c4nnco4)c3)cc1Cl)NC2=N [Example 28, (7S)-7-{3-chloro-5-[3-fluoro-5-(1,3,4-oxadiazol-2-yl)phenyl]thiophen-2-yl}-2,7-dimethyl-7,8-dihydropyrido[4,3-d]pyrimidin-5(6H)-imine] | 7.78 | 7.61
7 | C[C@@]1(c2cc(-c3cccc(-c4nnco4)c3)cs2)Cc2nc(C(F)(F)F)ncc2C(=N)N1 [Example 42, (7S)-7-methyl-7-{4-[3-(1,3,4-oxadiazol-2-yl)phenyl]thiophen-2-yl}-2-(trifluoromethyl)-7,8-dihydropyrido[4,3-d]pyrimidin-5(6H)-imine] | 7.30 | 6.92
8 | C[C@@]1(c2cc(-c3cccc(C#N)c3)cs2)Cc2nc(C3CC3)ncc2C(=N)N1 [Example 32, 3-{5-[(7S)-2-cyclopropyl-5-imino-7-methyl-5,6,7,8-tetrahydropyrido[4,3-d]pyrimidin-7-yl]thiophen-3-yl}benzonitrile] | 6.89 | 7.18
9 | Cc1ncc2c(n1)C[C@@](C)(c1sc(-c3cccc(C#N)c3)cc1Cl)NC2=N [Example 24, 3-{4-chloro-5-[(7S)-5-imino-2,7-dimethyl-5,6,7,8-tetrahydropyrido[4,3-d]pyrimidin-7-yl]thiophen-2-yl}benzonitrile] | 7.28 | 7.55
10 | Cc1ncc2c(n1)C[C@@](C)(c1sc(-c3cccc(-c4nnco4)c3)cc1Cl)NC2=N [Example 26, (7S)-7-{3-chloro-5-[3-(1,3,4-oxadiazol-2-yl)phenyl]thiophen-2-yl}-2,7-dimethyl-7,8-dihydropyrido[4,3-d]pyrimidin-5(6H)-imine] | 7.97 | 7.54
11 | C[C@@]1(c2sc(-c3ccc(F)c(C#N)c3)cc2Cl)Cc2ncncc2C(=N)N1 [Example 16, 5-{4-chloro-5-[(7S)-5-imino-7-methyl-5,6,7,8-tetrahydropyrido[4,3-d]pyrimidin-7-yl]thiophen-2-yl}-2-fluorobenzonitrile] | 7.44 | 7.78

Results, then the compound that gave them:

Row | pKi [1] | pKi [2] | SMILES
12 | 7.69 | 7.47 | C[C@@]1(c2cc(NC(=O)c3ccc(C(F)(F)F)cn3)ccc2F)Cc2nc(C3CC3)ncc2C(=N)N1 [Example 49, N-{3-[(7S)-2-cyclopropyl-5-imino-7-methyl-5,6,7,8-tetrahydropyrido[4,3-d]pyrimidin-7-yl]-4-fluorophenyl}-5-(trifluoromethyl)pyridine-2-carboxamide]
13 | 7.88 | 8.52 | C[C@@]1(c2cc(NC(=O)c3ccc(F)cn3)ccc2F)Cc2nc(C3CC3)ncc2C(=N)N1 [Example 48, N-{3-[(7S)-2-cyclopropyl-5-imino-7-methyl-5,6,7,8-tetrahydropyrido[4,3-d]pyrimidin-7-yl]-4-fluorophenyl}-5-fluoropyridine-2-carboxamide]
14 | 7.42 | 8.32 | COc1cccc2cc(-c3csc([C@]4(C)Cc5nc(C6CC6)ncc5C(=N)N4)c3)[nH]c12 [Example 33, (7S)-2-cyclopropyl-7-[4-(7-methoxy-1H-indo1-2-yl)thiophen-2-yl]-7-methyl-7,8-dihydropyrido[4,3-d]pyrimidin-5(6H)-imine]
15 | 6.90 | 7.20 | Cc1ncc2c(n1)C[C@@](C)(c1sc(-c3cncc(C#N)c3)cc1Cl)NC2=N [Example 25, 5-{4-chloro-5-[(7S)-5-imino-2,7-dimethyl-5,6,7,8-tetrahydropyrido[4,3-d]pyrimidin-7-yl]thiophen-2-yl}pyridine-3-carbonitrile]
16 | 6.96 | 7.69 | CC#Cc1cncc(-c2ccc(F)c([C@]3(C)Cc4ncncc4C(=N)N3)c2)c1 [Example 12, (7S)-7-[2-fluoro-5-(5-prop-1-yn-1-ylpyridin-3-yl)phenyl]-7-methyl-7,8-dihydropyrido[4,3-d]pyrimidin-5(6H)-imine]
17 | 7.09 | 7.40 | C[C@]1(c2cc(-c3cccc(C#N)c3)cs2)NC(=N)c2cncnc2C1(F)F [Example 18, 3-{5-[(7S)-8,8-difluoro-5-imino-7-methyl-5,6,7,8-tetrahydropyrido[4,3-d]pyrimidin-7-yl]thiophen-3-yl}benzonitrile]
18 | 7.28 | 7.55 | Cc1ncc2c(n1)C[C@@](C)(c1sc(-c3ccc(F)c(C#N)c3)cc1Cl)NC2=N [Example 27, 5-{4-chloro-5-[(7S)-5-imino-2,7-dimethyl-5,6,7,8-tetrahydropyrido[4,3-d]pyrimidin-7-yl]thiophen-2-yl}-2-fluorobenzonitrile]
19 | 7.54 | 8.82 | COc1cccc2cc(-c3csc([C@]4(C)Cc5nc(C(F)(F)F)ncc5C(=N)N4)c3)[nH]c12 [Example 39, (7S)-7-[4-(7-methoxy-1H-indo1-2-yl)thiophen-2-yl]-7-methyl-2-(trifluoromethyl)-7,8-dihydropyrido[4,3-d]pyrimidin-5(6H)-imine]
20 | 6.60 | 6.89 | C[C@@]1(c2cc(-c3cncc(Cl)c3)ccc2F)Cc2ncncc2C(=N)N1 [Example 4, (7S)-7-[5-(5-chloropyridin-3-yl)-2-fluoro-phenyl]-7-methyl-7,8-dihydropyrido[4,3-d]pyrimidin-5(6H)-imine]
21 | 7.02 | 7.35 | C[C@@]1(c2sc(-c3cncc(C#N)c3)cc2Cl)Cc2nc(C3CC3)ncc2C(=N)N1 [Example 37, 5-{4-chloro-5-[(7S)-2-cyclopropyl-5-imino-7-methyl-5,6,7,8-tetrahydropyrido[4,3-d]pyrimidin-7-yl]thiophen-2-yl}pyridine-3-carbonitrile]
